Each structure is given as a SMILES string. Bounds are passed on as bounds.

The assay relates to whole cells (NMuLi, C2C12, and L6 cells, isolated cardiomyocytes, human primary fibroblasts). Briefly: Oxygen consumption rate (OCR) in whole cells, Seahorse XF-24 Flux Analyzer. The assay is classed as cell-based. The settings on record: increase in OCR; binned EC50 values. How it is done:
Biological activities of the compounds synthesized is determined by determining increase in oxygen consumption rate (OCR).
Oxygen consumption rate (OCR) in whole cells is measured in general accordance with the method of Kenwood B M et al. (Mol. Met. (2014) 3:114-123).
OCR is measured using a Seahorse XF-24 Flux Analyzer (Seahorse Biosciences, North Billerica, MA). NMuLi, C2C12, and L6 cells are seeded in a Seahorse 24-well tissue culture plate at a density of 3.5×10^4 cells/well, isolated cardiomyocytes at a density of 4×10^4 cells/well, and human primary fibroblasts at a density of 1.1×10^4 cells/well. The cells are then allowed to adhere for 24 h. Prior to the assay, the media is changed to unbuffered DMEM containing pyruvate and glutamine (Gibco #12800-017, pH=7.4 at 37° C.) and the cells are equilibrated for 30 mins at 37°° C. Compounds are injected during the assay and OCR is measured using 2 min measurement periods.
2-3 wells are used per condition and averaged over three plates (n=6-9). Statistical significance is determined by two-way ANOVA with Bonferroni's posttest.
Activities are reported as binned EC50 values: A=5 μM or less; B=>5 to 20 μM; C=over 20 μM; NA=not active.
`O=C1c2ccccc2-c2ccc(Nc3nc4nonc4nc3O)cc21` [1-127, 2-((6-hydroxy-[1,2,5]oxadiazolo[3,4-b]pyrazin-5-yl)amino)-9H-fluoren-9-one]: the concentration giving a half-maximal response (EC50) (usually the midpoint of the concentration-response curve) was above 20 µM.
With `Oc1nc2nonc2nc1Nc1cccc(OCc2ccc(C(F)(F)F)cc2)c1` [1-97, 6-((3-((4-(Trifluoromethyl)benzyl)oxy)phenyl)amino)-[1,2,5]oxadiazolo[3,4-b]pyrazin-5-ol] the figure was at most 5 µM; with `CCCCCc1ccc(Nc2nc3nonc3nc2O)c(OC(F)(F)F)c1` [1-69, 6-((4-Pentyl-2-(trifluoromethoxy)phenyl)amino)-[1,2,5]oxadiazolo[3,4-b]pyrazin-5-ol], at most 5 µM.
For the molecule `Oc1nc2nonc2nc1Nc1ccc(-c2ccc(F)cc2)cc1F` [1-124, 6-((3,4′-difluoro-[1,1′-biphenyl]-4-yl)amino)-[1,2,5]oxadiazolo[3,4-b]pyrazin-5-ol], the EC50 was at most 5 µM.
In turn, `Oc1nc2nonc2nc1Nc1ccc(OC(F)(F)F)cc1` [1-10, 6-((4-(Trifluoromethoxy)phenyl)amino)-[1,2,5]oxadiazolo[3,4-b]pyrazin-5-ol] yielded an EC50 of 5 to 20 µM.
The figure for `Oc1nc2nonc2nc1Nc1ccc(C2CCCCC2)cc1` [1-205, 6-((4-cyclohexylphenyl)amino)-[1,2,5]oxadiazolo[3,4-b]pyrazin-5-ol] is at most 5 µM; for `Oc1nc2nonc2nc1Nc1ccc(OC(F)(F)Cl)cc1` [1-29, 6-((4-(Chlorodifluoromethoxy)phenyl)amino)-[1,2,5]oxadiazolo[3,4-b]pyrazin-5-ol] it is at most 5 µM.
`Oc1nc2nonc2nc1Nc1ccc2ccccc2c1` [1-44, 6-(Naphthalen-2-ylamino)-[1,2,5]oxadiazolo[3,4-b]pyrazin-5-ol] showed an EC50 of at most 5 µM.
In turn, `Oc1nc2nonc2nc1Nc1cccc(-c2ccc(F)c(C(F)F)c2)c1` [1-114, 6-((3′-(difluoromethyl)-4′-fluoro-[1,1′-biphenyl]-3-yl)amino)-[1,2,5]oxadiazolo[3,4-b]pyrazin-5-ol] had an EC50 of at most 5 µM.
With `Oc1nc2nonc2nc1Nc1cccc(S(F)(F)(F)(F)F)c1` [1-31, 6-((3-(Pentafluoro-16-sulfaneyl)phenyl)amino)-[1,2,5]oxadiazolo[3,4-b]pyrazin-5-ol] the figure was at most 5 µM.
The figure for `Oc1nc2nonc2nc1Nc1ccc(F)cc1` [1-5, 6-((4-Fluorophenyl)amino)-[1,2,5]oxadiazolo[3,4-b]pyrazin-5-ol] is above 20 µM; for `Oc1nc2nonc2nc1Nc1cccc(-c2ccc(OC(F)(F)F)cc2)c1` [1-136, 6-((4′-(trifluoromethoxy)-[1,1′-biphenyl]-3-yl)amino)-[1,2,5]oxadiazolo[3,4-b]pyrazin-5-ol] it is at most 5 µM.
The figure for `Oc1nc2nonc2nc1Nc1ccccc1F` [1-3, 6-((2-Fluorophenyl)amino)-[1,2,5]oxadiazolo[3,4-b]pyrazin-5-ol] is 5 to 20 µM.
`Oc1nc2nonc2nc1Nc1cccc2ccccc12` [1-50, 6-(Naphthalen-1-ylamino)-[1,2,5]oxadiazolo[3,4-b]pyrazin-5-ol] came in with a 50% effective concentration (EC50) of 5 to 20 µM.
For `CCCCC#Cc1ccc(Nc2nc3nonc3nc2O)c(OC(F)(F)F)c1` [1-65, 6-((4-(Hex-1-yn-1-yl)-2-(trifluoromethoxy)phenyl)amino)-[1,2,5]oxadiazolo[3,4-b]pyrazin-5-ol], the half-maximal effective concentration (EC50) lay within 5 to 20 µM.
With `Oc1nc2nonc2nc1Nc1cccc(-c2ccc(C(F)(F)F)nc2)c1` [1-115, 6-((3-(6-(trifluoromethyl)pyridin-3-yl)phenyl)amino)-[1,2,5]oxadiazolo[3,4-b]pyrazin-5-ol] the figure was above 20 µM.
The molecule `CCCCCCCCNc1nc2nonc2nc1O` [1-74, 6-(octylamino)-[1,2,5]oxadiazolo[3,4-b]pyrazin-5-ol] returned a 50% effective concentration (EC50) of at most 5 µM.
The figure for `Cc1ccc(CNc2nc3nonc3nc2O)cc1` [1-78, 6-((4-methylbenzyl)amino)-[1,2,5]oxadiazolo[3,4-b]pyrazin-5-ol] is above 20 µM.

(Values after patent US12655156B2, “Oxadiazolopyrazines and oxadiazolopyridines useful as mitochondrial uncouplers” (Virginia Tech Intellectual Properties, Inc., priority 2018, dated 2026).)
